Assays:
[1] = test system: acetylated α‐tubulin (marker of decreased HDAC6 activity); assay: Cellular target engagement: immunoblot of acetylated α-tubulin; assay type: cell-based; conditions: MM.1S cells, 10 µM, 24 h
Protocol: (§1) Immunoblot analysis of acetylated histone H3 (A) and α‐tubulin (B) in MM.1S cell lysates after treatment with the indicated compounds (10 µM) or vehicle (DMSO) for 24 h. Representative images from a total of n = 2 replicates.
(§2) The MM.1S cells (3 × 10^6 cells/mL) were seeded into cell culture flasks and, after 72 h, treated with the indicated concentration of compound or DMSO for the given time. Cell lysis was performed with Cell Extraction Buffer and the addition of Halt Protease Inhibitor Cocktail and phenylmethanesulfonyl fluoride. Protein content was determined by Pierce BCA Protein Assay Kit. Samples were denatured by Laemmli 2× Concentrate, and Precision Plus Protein Unstained Standard was used as a molecular weight marker in all cases. SDS‐PAGE was performed with 10% Mini‐PROTEAN TGX Stain‐Free Gel (Catalog# 458035, Bio‐Rad, Hercules, CA, USA) at 200 V for 50 min (Catalog# 458035, Bio‐Rad). Afterwards, proteins were transferred with the Trans‐Blot Turbo Transfer System to Immobilon‐FL PVDF membranes at 1.0 A for 30 min and incubated with 5% milk‐powder solution for 1 h at room temperature under slight agitation. Subsequently, the membranes were incubated with anti‐HDAC1 (Catalog# 5356S, Cell Signaling Technology, Denver, MA, USA), anti‐HDAC2 (Catalog# 9959S, Cell Signaling Technology, Denver, MA, USA), anti‐HDAC3 (Catalog# 85057S, Cell Signaling Technology, Denver, MA, USA), anti‐HDAC4 (Catalog# 7628S, Cell Signaling Technology, Denver, MA, USA), anti‐HDAC6 (Catalog# 7558S, Cell Signaling Technology, Denver, MA, USA), anti‐acetyl‐histone H3 (Catalog# 9677S, Cell Signaling Technology, Denver, MA, USA), anti‐acetyl‐α‐tubulin (Catalog# 5335, Cell Signaling Technology, Denver, MA, USA), or anti‐GAPDH (Catalog# T0004, Affinity Biosciences, Cincinnati, OH, USA) antibody solutions in 1:1000–1:20000 dilutions at room temperature under slight agitation for 1 h, then put membranes at 4°C for overnight. […] The ChemiDoc XRS+ System was used for detection, and Image Lab Software 6.1 (Bio‐Rad, Hercules, CA, USA) for quantification.

[2] = test system: acetylated histone H3 (indicator of reduced HDAC1‐3 activity); assay: Cellular target engagement: immunoblot of acetylated histone H3; assay type: cell-based; conditions: MM.1S cells, 10 µM, 24 h
Protocol: as §1, §2

HDAC2 [3] = target: T1, HDAC2 (Homo sapiens, UniProt Q92769); assay: HDAC enzyme inhibition assay (ZMAL substrate), HDAC2; assay type: biochemical; parameters: purchased BPS Bioscience 50052; conditions: n = 2, mean ± SD
Protocol: (§3) The total assay volume of 50 μL (HDAC2/3/6 max. 1% DMSO; HDAC1 max. 5% DMSO) was incubated at 37°C for 90 min. Subsequently, 50 μL of trypsin (0.4 mg/mL) in trypsin buffer (50 mM Tris−HCl, pH 8.0, 100 mM NaCl) was added, followed by an additional 30 min of incubation at 37°C. Fluorescence (excitation λ = 355 nm, emission λ = 460 nm) was measured using a FLUOstar OPTIMA microplate reader. The IC50 was determined by plotting dose–response curves and performing nonlinear regression using GraphPad Prism.
(§4) The total assay volume of 50 μL (HDAC2/3/6 max. 1% DMSO; HDAC1 max. 5% DMSO) was incubated at 37°C for 90 min. Subsequently, 50 μL of trypsin (0.4 mg/mL) in trypsin buffer (50 mM Tris−HCl, pH 8.0, 100 mM NaCl) was added, followed by additional 30 min of incubation at 37°C. Fluorescence (excitation λ = 355 nm, emission λ = 460 nm) was measured using a FLUOstar OPTIMA microplate reader. The IC50 was determined by plotting dose response curves and performing nonlinear regression using GraphPad Prism.^[3-6]

Human recombinant HDAC6 = target: T2, Human recombinant HDAC6 (Homo sapiens, UniProt Q9UBN7); assay: HDAC enzyme inhibition assay (ZMAL substrate), HDAC6; assay type: biochemical; conditions: n = 2, mean ± SD
T2 construct: purchased BPS Bioscience 50006
T2 sequence (Q9UBN7 1-1215): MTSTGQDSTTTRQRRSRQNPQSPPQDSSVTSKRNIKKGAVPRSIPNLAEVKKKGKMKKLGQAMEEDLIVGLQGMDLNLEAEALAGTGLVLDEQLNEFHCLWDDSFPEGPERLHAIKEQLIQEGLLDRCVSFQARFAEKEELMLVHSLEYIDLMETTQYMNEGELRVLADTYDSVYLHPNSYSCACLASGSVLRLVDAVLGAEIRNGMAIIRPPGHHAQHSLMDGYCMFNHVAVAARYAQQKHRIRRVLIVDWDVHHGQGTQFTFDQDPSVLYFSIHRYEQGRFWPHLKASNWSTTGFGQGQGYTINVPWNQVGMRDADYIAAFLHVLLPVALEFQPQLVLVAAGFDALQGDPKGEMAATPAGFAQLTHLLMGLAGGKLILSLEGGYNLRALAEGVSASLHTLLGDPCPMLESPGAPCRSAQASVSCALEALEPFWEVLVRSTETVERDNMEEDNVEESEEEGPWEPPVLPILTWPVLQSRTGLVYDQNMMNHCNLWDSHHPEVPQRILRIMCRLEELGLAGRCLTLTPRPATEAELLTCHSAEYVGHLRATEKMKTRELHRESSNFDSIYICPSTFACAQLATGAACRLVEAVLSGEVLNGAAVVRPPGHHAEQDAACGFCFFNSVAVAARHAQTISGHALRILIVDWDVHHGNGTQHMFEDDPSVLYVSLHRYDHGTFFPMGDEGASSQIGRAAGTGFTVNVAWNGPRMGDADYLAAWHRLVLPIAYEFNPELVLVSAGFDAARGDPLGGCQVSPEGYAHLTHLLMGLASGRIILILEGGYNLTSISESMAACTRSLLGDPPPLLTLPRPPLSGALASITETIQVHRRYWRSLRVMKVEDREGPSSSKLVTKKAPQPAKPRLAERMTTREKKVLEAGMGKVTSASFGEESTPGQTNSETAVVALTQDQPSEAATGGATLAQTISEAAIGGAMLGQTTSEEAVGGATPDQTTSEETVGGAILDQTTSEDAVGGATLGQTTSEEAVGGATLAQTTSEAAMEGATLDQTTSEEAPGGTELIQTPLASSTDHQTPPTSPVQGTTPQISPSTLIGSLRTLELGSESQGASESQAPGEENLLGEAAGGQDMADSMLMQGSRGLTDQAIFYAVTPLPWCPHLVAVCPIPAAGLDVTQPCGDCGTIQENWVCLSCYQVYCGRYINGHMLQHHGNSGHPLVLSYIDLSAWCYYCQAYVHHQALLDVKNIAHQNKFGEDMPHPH
Protocol: as §3, §4

MM.1S cells [4] = assay: CellTiter-Glo cell viability assay; assay type: cell-based; conditions: Homo sapiens, MM1.S; MM.1S cells, 72 h, CellTiter-Glo, n = 3, mean ± SD; read-out: IC50 cell viability
Protocol: The MM.1S was obtained from ATCC (Manassas, VA, USA).
For this purpose, the dilution series was prepared at 200× concentration in DMSO and then further diluted to 10× concentration in medium. The final DMSO concentration was 0.5%. The toxicity of compounds was assessed after 72 h using the CellTiter‐Glo 2.0 cell viability assay. Luminescence was then measured, and the IC50 was determined by plotting dose–response curves and performing nonlinear regression using GraphPad Prism.
For this purpose, the dilution series were prepared at 200× concentration in DMSO and then further diluted to 10× concentration in medium. The final DMSO concentration was 0.5%. The toxicity of compounds was assessed after 72 h using the CellTiter-Glo 2.0 cell viability assay. Luminescence was then measured, and the IC50 was determined by plotting dose-response curves and performing nonlinear regression using GraphPad Prism.^[1]

HDAC3 = target: T3, HDAC3 (Homo sapiens, UniProt O15379); assay: HDAC3 degradation, western blot in MM.1S cells; assay type: cell-based; conditions: MM.1S cells, 1, 10, 25 μM
T3 construct: endogenous in cells; host or cells: MM.1S
Protocol: (§5) Subsequently, degrader 10a was investigated at various concentrations (1, 10, and 25 µM) for degradation effects on different HDAC isoforms, including HDAC2, HDAC3, and HDAC4. […] In detail, 10a induced a modest degradation of HDAC2 (D max = 46% at 25 μM), which may be attributed to the high structural similarity between HDAC1 and HDAC2, particularly in their catalytic domains.
(§6) The MM.1S was obtained from ATCC (Manassas, VA, USA). MM.1S cells were cultivated in RPMI 1640 medium supplemented with 10% FBS, 100 IU/mL penicillin, 0.1 mg/mL streptomycin, and 1 mM sodium pyruvate at 37°C in a 5% CO2 atmosphere.
(§7) The MM.1S cells (3 × 10^6 cells/mL) were seeded into cell culture flasks and, after 72 h, treated with the indicated concentration of compound or DMSO for the given time. Cell lysis was performed with Cell Extraction Buffer and the addition of Halt Protease Inhibitor Cocktail and phenylmethanesulfonyl fluoride. Protein content was determined by Pierce BCA Protein Assay Kit. Samples were denatured by Laemmli 2× Concentrate, and Precision Plus Protein Unstained Standard was used as a molecular weight marker in all cases. […] The ChemiDoc XRS+ System was used for detection, and Image Lab Software 6.1 (Bio‐Rad, Hercules, CA, USA) for quantification.

[5] = target: T4, Human recombinant HDAC3/NcoR2 (Homo sapiens, UniProt O15379); assay: HDAC enzyme inhibition assay (ZMAL substrate), HDAC3; assay type: biochemical; conditions: n = 2, mean ± SD
T4 construct: purchased BPS Bioscience 50003
Protocol: as §3, §4

HDAC2 [6] = target: T1, HDAC2; assay: HDAC2 degradation, western blot in MM.1S cells; assay type: cell-based; parameters: endogenous in cells; host or cells: MM.1S
Protocol: as §5, §6
(§8) The MM.1S cells (3 × 10^6 cells/mL) were seeded into cell culture flasks and, after 72 h, treated with the indicated concentration of compound or DMSO for the given time. Cell lysis was performed with Cell Extraction Buffer and the addition of Halt Protease Inhibitor Cocktail and phenylmethanesulfonyl fluoride. Protein content was determined by Pierce BCA Protein Assay Kit. Samples were denatured by Laemmli 2× Concentrate, and Precision Plus Protein Unstained Standard was used as a molecular weight marker in all cases. SDS‐PAGE was performed with 10% Mini‐PROTEAN TGX Stain‐Free Gel (Catalog# 458035, Bio‐Rad, Hercules, CA, USA) at 200 V for 50 min (Catalog# 458035, Bio‐Rad). Afterwards, proteins were transferred with the Trans‐Blot Turbo Transfer System to Immobilon‐FL PVDF membranes at 1.0 A for 30 min and incubated with 5% milk‐powder solution for 1 h at room temperature under slight agitation. […] The ChemiDoc XRS+ System was used for detection, and Image Lab Software 6.1 (Bio‐Rad, Hercules, CA, USA) for quantification.

MM.1S cells [7] = assay: Annexin V-FITC/PI apoptosis assay, flow cytometry; assay type: cell-based; conditions: 10 μM, 48 h
Protocol: The percentage of cells that were annexin V‐positive but PI‐negative was considered as early apoptotic, whereas the percentage of cells that were both annexin V‐ and PI‐positive was considered as late apoptotic. Data are presented as mean ± standard deviation (n = 2 biological replicates, each performed in duplicates). Statistical analysis was performed by using one‐way ANOVA in GraphPad Prism 8. Statistical significance was indicated with asterisks (****p ≤ 0.0001).
MM.1S cells (3 × 10^5 cells/well) were seeded in 24‐well plates and treated with the indicated concentration of compound or DMSO for 48 h under cell culture conditions. Subsequently, cells were washed with cell staining buffer (HEPES 0.1 M, NaCl 1.4 M, CaCl2·3H2O 25 mM), resuspended in 300 µL, and 150 µL was transferred in a 96‐well plate.

HDAC1 [8] = target: T5, HDAC1 (Homo sapiens, UniProt Q13547); assay: HDAC enzyme inhibition assay (ZMAL substrate), HDAC1; assay type: biochemical; parameters: purchased BPS Bioscience 50051; conditions: n = 2, mean ± SD
Protocol: as §3, §4

HDAC4 = target: T6, HDAC4 (Homo sapiens, UniProt P56524); assay: HDAC4 degradation, western blot in MM.1S cells; assay type: cell-based; conditions: MM.1S cells, 1, 10, 25 μM
T6 construct: HDAC2, HDAC3, and HDAC4 levels were detected by immunoblot analysis; endogenous in cells; host or cells: MM.1S
Protocol: as §5, §6, §7

HDAC1 [9] = target: T5, HDAC1; assay: HDAC1 degradation, western blot in MM.1S cells; assay type: cell-based; parameters: endogenous in cells; host or cells: MM.1S; conditions: 24 h
Protocol: First, the multiple myeloma cell line MM.1S was treated with varying concentrations (1, 10, and 25 µM) of degraders 10a–d for 6 and 24 h, respectively. HDAC1 and HDAC6 were selected for investigation due to their critical roles in various diseases such as cancer. HDAC1 and HDAC6 protein levels were subsequently evaluated using western blot analysis. […] This limited efficacy could be due to insufficient incubation time of the compounds with MM.1S cells. […] All compounds still exerted no degradation of HDAC6 at different concentrations after 24 h of treatment. However, different from 10b–d, degrader 10a, which contains a hydroxamic acid as ZBG, achieved substantial degradation of HDAC1 with a maximal degradation (D max) value of 74% at 25 μM. Consequently, Compound 10a was selected for further biological evaluations based on the initial screening results.
as §6, §8

T1 sequence (Q92769 whole entry): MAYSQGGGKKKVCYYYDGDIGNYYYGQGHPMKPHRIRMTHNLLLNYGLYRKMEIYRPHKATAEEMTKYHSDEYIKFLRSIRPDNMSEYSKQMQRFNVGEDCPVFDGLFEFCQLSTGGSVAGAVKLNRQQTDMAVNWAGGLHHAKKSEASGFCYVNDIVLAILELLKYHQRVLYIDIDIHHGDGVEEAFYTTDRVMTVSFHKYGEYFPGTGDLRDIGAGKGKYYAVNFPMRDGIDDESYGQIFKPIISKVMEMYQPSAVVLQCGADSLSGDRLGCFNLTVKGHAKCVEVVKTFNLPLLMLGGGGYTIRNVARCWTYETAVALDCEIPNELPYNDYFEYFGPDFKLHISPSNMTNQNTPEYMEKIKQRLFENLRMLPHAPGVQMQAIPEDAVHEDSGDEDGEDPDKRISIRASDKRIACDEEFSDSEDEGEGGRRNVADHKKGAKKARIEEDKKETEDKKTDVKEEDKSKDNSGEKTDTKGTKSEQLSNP
T5 sequence (Q13547 whole entry): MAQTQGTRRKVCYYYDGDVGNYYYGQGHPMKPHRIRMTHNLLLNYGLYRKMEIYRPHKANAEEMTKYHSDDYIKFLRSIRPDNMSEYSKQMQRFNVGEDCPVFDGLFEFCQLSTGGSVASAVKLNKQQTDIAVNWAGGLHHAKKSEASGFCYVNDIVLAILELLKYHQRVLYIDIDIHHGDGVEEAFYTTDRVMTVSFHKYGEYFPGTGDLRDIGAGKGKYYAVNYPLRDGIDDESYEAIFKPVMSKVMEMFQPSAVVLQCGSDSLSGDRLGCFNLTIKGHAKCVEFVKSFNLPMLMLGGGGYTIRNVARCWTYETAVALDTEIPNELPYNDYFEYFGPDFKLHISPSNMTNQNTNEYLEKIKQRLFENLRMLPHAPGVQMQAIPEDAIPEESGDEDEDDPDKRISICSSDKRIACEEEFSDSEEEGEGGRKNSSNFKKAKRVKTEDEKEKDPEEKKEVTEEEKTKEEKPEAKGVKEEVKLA
T3 sequence (O15379 whole entry): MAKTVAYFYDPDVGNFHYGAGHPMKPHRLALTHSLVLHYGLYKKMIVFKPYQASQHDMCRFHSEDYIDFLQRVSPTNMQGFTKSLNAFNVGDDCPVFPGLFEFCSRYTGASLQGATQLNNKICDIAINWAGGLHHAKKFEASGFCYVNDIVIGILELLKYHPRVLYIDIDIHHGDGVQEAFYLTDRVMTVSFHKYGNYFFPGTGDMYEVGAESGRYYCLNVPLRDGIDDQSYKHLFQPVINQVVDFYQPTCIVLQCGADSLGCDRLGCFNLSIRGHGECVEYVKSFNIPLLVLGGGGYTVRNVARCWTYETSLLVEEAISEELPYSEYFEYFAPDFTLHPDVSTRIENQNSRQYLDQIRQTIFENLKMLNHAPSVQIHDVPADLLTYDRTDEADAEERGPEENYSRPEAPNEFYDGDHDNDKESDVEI
T6 sequence (P56524 whole entry): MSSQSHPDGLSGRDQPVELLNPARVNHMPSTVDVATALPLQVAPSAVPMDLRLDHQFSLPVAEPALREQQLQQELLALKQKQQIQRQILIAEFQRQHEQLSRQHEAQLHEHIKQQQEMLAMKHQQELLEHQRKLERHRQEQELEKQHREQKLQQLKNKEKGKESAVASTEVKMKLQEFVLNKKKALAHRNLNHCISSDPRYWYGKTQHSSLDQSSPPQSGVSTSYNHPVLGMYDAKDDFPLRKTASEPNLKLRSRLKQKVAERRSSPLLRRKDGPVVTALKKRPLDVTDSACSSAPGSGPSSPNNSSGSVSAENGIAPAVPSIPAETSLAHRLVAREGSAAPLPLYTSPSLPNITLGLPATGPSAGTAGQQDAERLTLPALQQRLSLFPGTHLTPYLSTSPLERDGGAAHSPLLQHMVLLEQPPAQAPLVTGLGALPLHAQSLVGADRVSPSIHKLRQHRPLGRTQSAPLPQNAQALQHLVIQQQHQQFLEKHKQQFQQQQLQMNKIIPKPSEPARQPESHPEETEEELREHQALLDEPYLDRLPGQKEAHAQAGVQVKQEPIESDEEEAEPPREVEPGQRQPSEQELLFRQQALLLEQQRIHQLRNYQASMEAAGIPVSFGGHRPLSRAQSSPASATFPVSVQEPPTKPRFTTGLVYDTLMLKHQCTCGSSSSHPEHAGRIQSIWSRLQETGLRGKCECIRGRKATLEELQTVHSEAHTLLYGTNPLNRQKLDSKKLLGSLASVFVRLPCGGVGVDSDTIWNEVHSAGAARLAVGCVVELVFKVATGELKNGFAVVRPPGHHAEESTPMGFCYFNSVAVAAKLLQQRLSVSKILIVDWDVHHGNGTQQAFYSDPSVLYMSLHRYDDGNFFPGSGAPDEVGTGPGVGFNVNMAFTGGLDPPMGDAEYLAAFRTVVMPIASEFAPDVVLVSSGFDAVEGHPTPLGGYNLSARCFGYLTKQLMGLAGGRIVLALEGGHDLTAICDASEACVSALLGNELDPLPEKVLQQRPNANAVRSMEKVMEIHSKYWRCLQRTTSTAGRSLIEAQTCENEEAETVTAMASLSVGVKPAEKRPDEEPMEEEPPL
T4 sequence (O15379 whole entry): as the sequence (O15379 whole entry) above
T4 sequence (Q9Y618 395-489 partner limits assumed): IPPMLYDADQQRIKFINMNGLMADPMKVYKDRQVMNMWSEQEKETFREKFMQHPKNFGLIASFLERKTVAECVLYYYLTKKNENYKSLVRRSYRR

Row | SMILES | level of acetylated α-tubulin [1] | level of acetylated histone H3 [2] | IC50 (HDAC2 [3]) | IC50 (Human recombinant HDAC6) | IC50 (MM.1S cells [4]) | HDAC3 degradation (HDAC3; 6 h) | HDAC3 protein levels (HDAC3; 24 h) | hyperacetylation of α-tubulin compared with vorinostat [1] | IC50 [5] | Dmax at 25 µM (HDAC2 [6]; MM1.S, MM.1S cells, 25 μM, 24 h, read-out: maximal degradation (Dmax) of HDAC2) | HDAC2 degradation (HDAC2 [6]; MM.1S cells, 1, 10, 25 μM, 6 h) | HDAC2 protein levels (HDAC2 [6]; MM.1S cells, 1, 10, 25 μM, 24 h) | apoptosis induction: proportions of early and late apoptotic cells (MM.1S cells [7]) | IC50 (HDAC1 [8]) | HDAC4 degradation (HDAC4; 6 h) | HDAC4 protein levels (HDAC4; 24 h) | effect on histone H3 acetylation compared with vorinostat [2] | HDAC1 protein levels (HDAC1 [9]; 25 μM, immunoblot) | DC50 (HDAC1 [9]; 0.37 up to 30 μM, western blot, read-out: half-maximal degradation concentration (DC50) for HDAC1) | Dmax at 25 µM (HDAC1 [9]; MM1.S, 25 μM, western blot, read-out: maximal degradation (Dmax) of HDAC1)
1 | C=CS(=O)(=O)N1CCNCC1 [Compound 8, 1‐(Vinylsulfonyl)piperazine, reference compound] | no effects | no effects | – | – | – | – | – | – | – | – | – | – | – | – | – | – | – | – | – | –
2 | C=CS(=O)(=O)N1CCN(C(=O)Cc2ccc(NC(=O)CCCCCCC(=O)NO)cc2)CC1 [Compound 10a, N ^1‐Hydroxy‐N ^8‐(4‐{2‐oxo‐2‐[4‐(vinylsulfonyl)piperazin‐1‐yl]ethyl}phenyl)octanediamide] | pronounced upregulation | pronounced upregulation | 88 ± 7 nM | 27 ± 8 nM | 6480 ± 1180 nM | none of the used concentrations resulted in the degradation | minimal impact | comparable to its parent inhibitor, vorinostat | 51 ± 4 nM | 46% | none of the used concentrations resulted in the degradation | slightly affected | markedly increased | 17 ± 1 nM | none of the used concentrations resulted in the degradation | minimal impact | markedly lower than that of vorinostat | induced a reduction of HDAC1 protein levels | 8800 ± 4400 nM | 74%

— paper PMC12238837, “DCAF16‐Based Covalent Molecular Glues for Targeted Protein Degradation of Histone Deacetylases” (Archiv Der Pharmazie, 2025)
